Source: patent EP0232423A1, “CIRCULATION IMPROVING AGENT” (GRELAN PHARMACEUTICAL CO., LTD., priority 1985, dated 1987)

Legend:
[1] = Acute toxicity (LD50); conditions: mouse, in vivo, mice
[2] = test system: ddY male mice; assay: Ameliorative activity against damage of cerebral hypoxia (reduced pressure); assay type: in vivo; conditions: i.p.; 30 mg/kg compound (I) and ifenprodil tartrate, 16 mg/kg phentolamine
Experimental: Thirty mg/kg each of compound (I) (lactate) and ifenprodil tartrate and 16 mg/kg of phentolamine, which is an a-adrenoceptor blocker, were intraperitoneally administered to ddY male mice, respectively. […] Time from start of reduction of pressure until stop of respiration in the mice was measured. The control group was drug-untreated.

[3] = test system: male mice; assay: Serum total cholesterol and β-lipoprotein in mice fed high cholesterol food; assay type: in vivo; conditions: 200 mg/kg oral on 6th and 7th day, high cholesterol food 7 days, three male mice
Experimental: Three male mice were fed high cholesterol food for 7 days and 200 mg/kg of compound (I) was orally administered on the 6th day and the 7th day. After a fast over night from the 7th day, measurements of the total cholesterol in serum (Abell et al, "Standard Method of Clinical Chemistry", vol. 2, page 26, […], published by Academic Press; Kanai et al, "[…]", vol. 7, page 64, 1978, published by Kanehara Shuppan) and the amount of β-lipoprotein (Fried-Hoeflmayer, Klin. Wschr., vol. 41, page 246, 1963; Kanai et al, "Rinsho Kensaho Teiyo", vol. 7, page 79, 1978, published by Kanehara Shuppan) were conducted. The control group was compound (I)-untreated.

[4] = test system: ddY male mice; assay: Thromboembolic respiratory depression induced by ADP; assay type: in vivo; conditions: 30 mg/kg oral, ADP 40 mg/kg i.v., Compound (I) = erythro form
Experimental: The degree of formation of platelet thrombi in the pulmonary vessels of mice induced by intravenous administration of ADP can be measured based on the decrease in the respiratory rate. The anti-platelet thrombotic action of test drugs can be evaluated by using this decrease in the respiratory rate as a standard. […] Relative respiratory rate (%) was calculated according to the following formula. [formula] (cf. "Thrombosis Research", Vol. 35, Page 311, 1984)

[5] = test system: α2-adrenoceptor; assay: Antagonism of clonidine (α2-agonist) contraction in saphenous vein; assay type: cell-based, Mongrel dogs; conditions: clonidine
Excerpt: (§1) In this experiment, phenylephrine and clonidine were used as al-agonist and a2-agonist, respectively, and these agonists were cumulatively applied to obtain a dose-response curve.

[6] = test system: α1-adrenoceptor; assay: Antagonism of phenylephrine (α1-agonist) contraction in saphenous vein; assay type: cell-based, Mongrel dogs; conditions: compared by pA2 value
Excerpt: as §1

[7] = test system: platelets of rabbit; assay: Fluidity of platelet membrane (fluorescence polarization); assay type: cell-based; design: Fluorescence polarization: unit not given here; conditions: fluidity increases as value decreases
Excerpt: The activity of compound (I) (lactate) and ifenprodil tartrate against the fluidity of platelet membrane was examined according to a known method (Biochimica et Biophysica Acta, vol. 798, page 210, 1984) using platelets of rabbit and using n-butyl alcohol as a positive control.

[8] = test system: male mice; assay: Isoproterenol-induced tachycardia; assay type: in vivo; conditions: 25 mg/kg oral, 30 minutes before 0.01 mg/kg isoproterenol i.v.; three male mice
Experimental: 25 mg/kg of compound (I) was orally administered to three male mice. After 30 minutes from administration, 0.01 mg/kg of isoproterenol, which is a β-agonist, was intravenously administered, and the effect of compound (I) on tachycardia induced by isoproterenol was observed. The control group was compound (I) - untreated.

[9] = test system: mice; assay: Protective action on death caused by endotoxin shock; assay type: in vivo; conditions: for Number of survival after administration of endotoxin: of 15 (Compound (I)) or 14 (ifenprodil) animals
Excerpt: Compound (I) and ifenprodil tartrate were orally administered to mice and the protective action on death due to endotoxin shock was examined in accordance with a known method (Folia pharmacol. japon, vol. 86, page 17, 1985). The control group was drug-untreated.

**Q.** With CC(C(O)c1ccc(OCc2ccccc2)cc1)N1CCC(Cc2ccccc2)CC1 (stereo not drawn) [Compound (I), 2-(4-benzylpiperidino)-l-(4-benzyloxyphenyl)propan-l-ol] as the compound, how does the LD50 ([1]; iv, venous injection) read?
**A.** > 70 mg/kg

**Q.** What about the LD50 ([1]; oral) of the same compound?
**A.** > 1200 mg/kg

**Q.** What about the “effect on survival time (cerebral hypoxia)” value [2] of the same compound?
**A.** markedly prolongs survival time

**Q.** What about the “Reduction % as compared with control group Total cholesterol” value ([3]; serum) of the same compound?
**A.** 8%

**Q.** What about the “Reduction % as compared with control group β-lipoprotein” value [3] of the same compound?
**A.** 18%

**Q.** What about the “Relative respiratory rate (%)” value ([4]; 1/3 hr after administration) of the same compound?
**A.** 53.1 ±11.7 (n=7) %

**Q.** What about the “Relative respiratory rate (%)” value ([4]; 1 hr after administration) of the same compound?
**A.** 51.2 ±5.6 (n=10) %

**Q.** What about the “Relative respiratory rate (%)” value ([4]; 2 hr after administration) of the same compound?
**A.** 52.8 ±7.4 (n=10) %

**Q.** What about the “Relative respiratory rate (%)” value ([4]; 3 hr after administration) of the same compound?
**A.** 49.0 ±8.4(*) (n=9) %

**Q.** What about the “Relative respiratory rate (%)” value ([4]; 5 hr after administration) of the same compound?
**A.** 41.9 ±11.5 (n=8) %

**Q.** What about the “antagonism on the α2-agonist” value ([5]; concentration of 10^-5 M) of the same compound?
**A.** non- competitive antagonism

**Q.** And the “antagonism on the α2-agonist” value ([5]; concentration of 10^-6 M)?
**A.** No competitive antagonism is recognized

**Q.** What about the “competitive antagonism on the α1-agonist relative to that of ifenprodil” value [6] of the same compound?
**A.** about 1/15

**Q.** And the “competitive antagonism on the α1-agonist relative to that of prazosin” value [6]?
**A.** about 1/8

**Q.** And the Fluorescence polarization ([7]; 1 µM)?
**A.** 2±4

**Q.** What about the Fluorescence polarization ([7]; 10 µM) of the same compound?
**A.** 0±8

**Q.** And the Fluorescence polarization ([7]; 30 µM)?
**A.** -2±0

**Q.** And the Fluorescence polarization ([7]; 100 µM)?
**A.** -22±7

**Q.** What about the “Inhibition % of isoproterenol-induced tachycardia” value [8] of the same compound?
**A.** 23%

**Q.** What about the “Number of survival after administration of endotoxin” value (“Number of survival” below) ([9]; 70 mg/kg oral, 18 hr) of the same compound?
**A.** 12

**Q.** What about the “Number of survival” value ([9]; 70 mg/kg oral, 20 hr) of the same compound?
**A.** 9

**Q.** And the “Number of survival” value ([9]; 70 mg/kg oral, 22 hr)?
**A.** 8

**Q.** And the “Number of survival” value ([9]; 70 mg/kg oral, 24 hr)?
**A.** 5

**Q.** And the “Number of survival” value ([9]; 70 mg/kg oral, 48 hr)?
**A.** 1

**Q.** What about the “Number of survival” value ([9]; 200 mg/kg oral, 18 hr) of the same compound?
**A.** 13

**Q.** And the “Number of survival” value ([9]; 200 mg/kg oral, 20 hr)?
**A.** 13

**Q.** What about the “Number of survival” value ([9]; 200 mg/kg oral, 22 hr) of the same compound?
**A.** 10

**Q.** What about the “Number of survival” value ([9]; 200 mg/kg oral, 24 hr) of the same compound?
**A.** 7

**Q.** And the “Number of survival” value ([9]; 200 mg/kg oral, 48 hr)?
**A.** 5

**Q.** What about the “protective action on the death (endotoxin shock)” value ([9]; oral, mice, compound (I) at 200 mg/kg) of the same compound?
**A.** remarkable protective action on the death
